In patent US20220112187A1, “PYRAZOLOPYRIDINE AMINE COMPOUNDS FOR THE TREATMENT OF AUTOIMMUNE DISEASE” (Hoffmann-La Roche Inc., priority 2018, published 2022):
pIC50: −log10 of the molar value.

Biological target: T1, human TLR7 (Homo sapiens, UniProt Q9NYK1)
T1 sequence (Q9NYK1 27-1049): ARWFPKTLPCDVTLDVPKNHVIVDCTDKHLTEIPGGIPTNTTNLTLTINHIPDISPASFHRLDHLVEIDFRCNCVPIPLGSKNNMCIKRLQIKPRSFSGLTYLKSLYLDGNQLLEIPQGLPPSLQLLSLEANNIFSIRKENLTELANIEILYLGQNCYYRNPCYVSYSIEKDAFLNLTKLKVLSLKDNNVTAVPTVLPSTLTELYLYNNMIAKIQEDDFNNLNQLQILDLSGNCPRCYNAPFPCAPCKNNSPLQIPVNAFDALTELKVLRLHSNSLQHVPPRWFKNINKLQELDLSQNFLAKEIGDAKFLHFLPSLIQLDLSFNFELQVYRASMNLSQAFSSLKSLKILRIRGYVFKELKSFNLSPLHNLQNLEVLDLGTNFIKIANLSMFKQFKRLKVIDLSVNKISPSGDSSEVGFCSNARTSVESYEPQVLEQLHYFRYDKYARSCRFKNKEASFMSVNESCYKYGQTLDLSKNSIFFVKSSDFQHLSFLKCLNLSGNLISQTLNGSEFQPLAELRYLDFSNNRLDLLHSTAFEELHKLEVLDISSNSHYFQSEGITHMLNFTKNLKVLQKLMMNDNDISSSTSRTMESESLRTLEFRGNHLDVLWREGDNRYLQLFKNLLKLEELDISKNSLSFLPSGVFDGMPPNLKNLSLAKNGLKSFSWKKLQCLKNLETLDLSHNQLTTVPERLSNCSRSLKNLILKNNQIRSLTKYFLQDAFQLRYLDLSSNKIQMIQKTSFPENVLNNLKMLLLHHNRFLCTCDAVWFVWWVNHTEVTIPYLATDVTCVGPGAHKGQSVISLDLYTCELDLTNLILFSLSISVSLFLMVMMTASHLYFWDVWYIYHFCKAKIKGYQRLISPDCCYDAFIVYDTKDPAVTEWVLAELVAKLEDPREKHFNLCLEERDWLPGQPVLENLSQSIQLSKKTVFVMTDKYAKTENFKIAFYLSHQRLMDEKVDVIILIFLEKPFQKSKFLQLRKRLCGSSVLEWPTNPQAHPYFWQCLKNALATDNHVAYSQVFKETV
Test: HEK293-Blue-hTLR-7 cells assay (SEAP reporter, R848 stimulation)
Type: cell-based
Settings: HEK293-Blue-hTLR7 cells, R848 ligand, 20 hrs incubation
Procedure, shortened: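 Antagonist mode: HEK293-Blue-hTLR7 cells (250,000–450,000 cells/mL) incubated 20 h at 37° C. with serially diluted compound (1% DMSO) and R848 (20 uM stock). NF-κB/AP-1-driven SEAP in supernatant read with QUANTI-Blue after 2 h at 37° C., absorbance 620–655 nm.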

pIC50 | Structure (SMILES)
7.01 | C[C@@H]1CN(c2ccc(C#N)n3nccc23)C[C@H](CN2CCC3(CCCCN3)C2)O1 (stereo partly drawn) [Example 42, 4-[(2S,6R)-2-(2,6-diazaspiro[4.5]decan-2-ylmethyl)-6-methyl-morpholin-4-yl]pyrazolo[1,5-a]pyridine-7-carbonitrile]
6.17 | C[C@@H]1CN(c2ccc(C#N)n3nccc23)C[C@H](CN2C[C@H]3CC[C@@H](N(C)C)[C@H]3C2)O1 (racemic) [Example 75, 4-[(2S,6R)-2-[[4-(dimethylamino)-3,3a,4,5,6,6a-hexahydro-1H-cyclopenta[c]pyrrol-2-yl]methyl]-6-methyl-morpholin-4-yl]pyrazolo[1,5-a]pyridine-7-carbonitrile]
